Data on 5 compounds can be found in patent US9267165B2, “Assays and kits for detecting protein binding” (DiscoveRx Corporation, priority 2002, dated 2016).

Like-named read-outs stand apart in the source and are kept apart here.

One assay deals with JNK2 (Homo sapiens, UniProt P45984). Conditions: IC50, Ki or Kd from the literature; cited from earlier work.
A further assay deals with EGFR (Homo sapiens, UniProt P00533). Conditions: IC50, Ki or Kd from the literature; cited from earlier work.
The next assay concerns the target ERBB2 (Homo sapiens, UniProt P04626). Conditions: IC50, Ki or Kd from the literature; cited from earlier work.
For assay [1], the target named is T1, p38α (Homo sapiens, UniProt Q16539). Conditions: IC50, Ki or Kd from the literature; cited from earlier work.
For assay [2], the target named is T1, p38α. Description: Competition binding assay, phage-displayed kinase vs immobilized ATP-site ligand (SB202190). More on the design: the coding region for p38α was cloned into the phage genome in-frame with the gene encoding the major T7 capsid protein; made in house; host or cells: T7 phage grown in E. coli (BLT 5615 in the illustrative protocol); lysate used directly.

T1 sequence (Q16539 whole entry): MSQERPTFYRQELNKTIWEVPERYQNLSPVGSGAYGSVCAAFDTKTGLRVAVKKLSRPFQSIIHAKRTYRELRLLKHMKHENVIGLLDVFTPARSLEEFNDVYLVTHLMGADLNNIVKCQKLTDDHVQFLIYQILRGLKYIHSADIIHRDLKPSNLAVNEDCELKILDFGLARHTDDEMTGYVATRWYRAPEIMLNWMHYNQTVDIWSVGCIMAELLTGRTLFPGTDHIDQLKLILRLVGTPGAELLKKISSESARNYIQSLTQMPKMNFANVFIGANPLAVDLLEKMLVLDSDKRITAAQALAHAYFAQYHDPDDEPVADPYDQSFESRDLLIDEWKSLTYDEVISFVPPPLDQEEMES
Chain of ERBB2 (P04626 23-1255, species assumed): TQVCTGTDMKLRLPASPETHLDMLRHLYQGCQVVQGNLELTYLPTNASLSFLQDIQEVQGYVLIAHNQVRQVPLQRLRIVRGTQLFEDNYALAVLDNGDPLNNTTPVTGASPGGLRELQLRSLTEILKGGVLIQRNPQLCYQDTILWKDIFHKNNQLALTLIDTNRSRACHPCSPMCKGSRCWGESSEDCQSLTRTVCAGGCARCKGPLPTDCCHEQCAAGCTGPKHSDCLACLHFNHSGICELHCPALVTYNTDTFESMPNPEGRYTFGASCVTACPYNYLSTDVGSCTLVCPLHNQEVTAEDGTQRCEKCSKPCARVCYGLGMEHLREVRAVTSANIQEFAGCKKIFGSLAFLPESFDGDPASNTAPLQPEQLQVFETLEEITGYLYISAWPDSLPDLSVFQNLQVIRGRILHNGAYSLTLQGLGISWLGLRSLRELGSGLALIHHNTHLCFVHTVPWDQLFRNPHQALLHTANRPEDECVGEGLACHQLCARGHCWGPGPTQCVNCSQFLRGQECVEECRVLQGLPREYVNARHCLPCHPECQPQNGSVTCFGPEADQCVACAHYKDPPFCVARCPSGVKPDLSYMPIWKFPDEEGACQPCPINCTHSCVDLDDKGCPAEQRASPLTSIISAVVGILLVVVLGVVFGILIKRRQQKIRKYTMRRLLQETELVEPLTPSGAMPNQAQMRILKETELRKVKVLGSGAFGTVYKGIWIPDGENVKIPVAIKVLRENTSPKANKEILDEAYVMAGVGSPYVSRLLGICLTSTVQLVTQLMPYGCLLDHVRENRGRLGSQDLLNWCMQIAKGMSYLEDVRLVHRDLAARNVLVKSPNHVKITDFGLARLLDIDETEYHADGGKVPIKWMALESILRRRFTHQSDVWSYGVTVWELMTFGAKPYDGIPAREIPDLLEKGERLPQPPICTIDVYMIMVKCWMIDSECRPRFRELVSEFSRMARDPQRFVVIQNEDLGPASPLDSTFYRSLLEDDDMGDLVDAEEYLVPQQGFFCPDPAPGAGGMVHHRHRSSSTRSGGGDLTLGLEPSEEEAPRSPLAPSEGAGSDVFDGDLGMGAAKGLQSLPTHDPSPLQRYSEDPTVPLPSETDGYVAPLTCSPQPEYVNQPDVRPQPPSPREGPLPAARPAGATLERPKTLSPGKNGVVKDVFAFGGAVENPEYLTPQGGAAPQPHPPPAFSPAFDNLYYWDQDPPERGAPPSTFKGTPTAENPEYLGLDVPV
Chain of JNK2 (P45984 whole entry, species assumed): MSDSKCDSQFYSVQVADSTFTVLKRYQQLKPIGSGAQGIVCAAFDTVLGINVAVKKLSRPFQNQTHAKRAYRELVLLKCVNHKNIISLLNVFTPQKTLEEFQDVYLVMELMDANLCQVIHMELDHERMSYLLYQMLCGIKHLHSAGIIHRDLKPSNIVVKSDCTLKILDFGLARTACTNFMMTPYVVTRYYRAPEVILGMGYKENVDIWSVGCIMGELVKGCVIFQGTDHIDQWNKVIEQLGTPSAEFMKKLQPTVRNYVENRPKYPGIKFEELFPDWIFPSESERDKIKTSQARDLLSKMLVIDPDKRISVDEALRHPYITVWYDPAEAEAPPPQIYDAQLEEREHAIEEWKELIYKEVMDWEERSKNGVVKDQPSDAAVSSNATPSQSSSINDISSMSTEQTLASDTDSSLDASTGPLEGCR
Chain of EGFR (P00533 25-1210, species assumed): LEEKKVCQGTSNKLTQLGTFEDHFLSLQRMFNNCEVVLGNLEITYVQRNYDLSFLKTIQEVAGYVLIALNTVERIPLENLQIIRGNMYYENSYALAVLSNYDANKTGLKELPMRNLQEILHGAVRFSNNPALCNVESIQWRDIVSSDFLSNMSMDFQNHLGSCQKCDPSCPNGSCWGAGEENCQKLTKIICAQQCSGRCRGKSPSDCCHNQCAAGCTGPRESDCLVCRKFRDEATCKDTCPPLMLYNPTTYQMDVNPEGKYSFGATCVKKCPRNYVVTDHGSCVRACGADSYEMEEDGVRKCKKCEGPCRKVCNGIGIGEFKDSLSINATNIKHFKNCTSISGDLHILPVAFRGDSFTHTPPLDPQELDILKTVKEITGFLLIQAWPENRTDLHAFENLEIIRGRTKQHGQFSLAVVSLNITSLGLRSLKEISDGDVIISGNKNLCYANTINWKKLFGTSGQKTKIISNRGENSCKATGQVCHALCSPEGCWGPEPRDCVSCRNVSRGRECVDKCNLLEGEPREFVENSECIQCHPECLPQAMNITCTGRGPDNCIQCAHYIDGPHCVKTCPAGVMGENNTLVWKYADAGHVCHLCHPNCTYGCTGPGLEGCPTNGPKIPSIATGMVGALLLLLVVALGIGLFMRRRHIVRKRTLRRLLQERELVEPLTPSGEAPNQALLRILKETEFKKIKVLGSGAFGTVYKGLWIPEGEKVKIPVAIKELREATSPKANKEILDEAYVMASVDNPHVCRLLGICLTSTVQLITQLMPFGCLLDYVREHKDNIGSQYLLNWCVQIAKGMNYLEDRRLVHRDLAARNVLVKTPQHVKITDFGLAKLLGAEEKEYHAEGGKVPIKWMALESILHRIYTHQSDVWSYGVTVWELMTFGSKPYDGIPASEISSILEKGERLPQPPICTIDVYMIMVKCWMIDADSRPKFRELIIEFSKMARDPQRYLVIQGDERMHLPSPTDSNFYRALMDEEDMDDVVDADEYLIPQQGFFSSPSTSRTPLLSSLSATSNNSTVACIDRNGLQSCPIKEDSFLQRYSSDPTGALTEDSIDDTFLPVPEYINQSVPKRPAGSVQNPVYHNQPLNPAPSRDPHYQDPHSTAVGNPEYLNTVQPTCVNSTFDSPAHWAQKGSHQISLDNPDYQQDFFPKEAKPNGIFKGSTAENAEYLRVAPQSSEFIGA

`O=C1c2ccccc2-c2n[nH]c3cccc1c23` [CC-401]: the Published on JNK2 is recorded as 110 (Z. Han et al., J. Clin. Invest. 108, 73 (2001)) nM. With `CS(=O)(=O)CCNCc1ccc(-c2ccc3c(Nc4ccc(OCc5cccc(F)c5)c(Cl)c4)ncnc3c2)o1` [GW-2016], the Published on EGFR is 11 (D. W. Rusnak et al., Mol. Cancer Ther. 1, 85 (2001)) nM; on ERBB2 it was 9.2 (D. W. Rusnak et al., Mol. Cancer Ther. 1, 85 (2001)) nM. As for `Oc1ccc(-c2nc(-c3ccncc3)c(-c3ccc(F)cc3)[nH]2)cc1` [SB202190], at p38α [1], the Published is listed as 37 (B. Frantz et at., Biochemistry 37, 13846 (1998)). nM. Further, the “binding (association) kinetics” value at p38α [2] (p38, known and also observed in the competition assays) is on record as “fast”.

For `CCc1nc(-c2ccc(OC)cc2)[nH]c1-c1ccncc1` [SB202474], on p38α [2], the “decrease of the amount of phage-displayed p38 bound to the solid support” value is “neither SB202474 nor purvalanol A had a significant effect”. Consider `CC(C)[C@H](CO)Nc1nc(Nc2cccc(Cl)c2)c2ncn(C(C)C)c2n1` [purvalanol A], for which, on p38α [2] (competition with immobilized SB202190, FIG. 1B), the “decrease of the amount of phage-displayed p38 bound to the solid support” value was “neither SB202474 nor purvalanol A had a significant effect”.
